From patent US6824770B1, “Adenovirus gene expression system” (Cornell Research Foundation, Inc., priority 1993, dated 2004) come the findings set out here.

The target of assay [1] is T1, TRH-R (Mus musculus, UniProt P21761).
T1 construct: expressed in transfected cells; host or cells: Infected with AdCMVmTRHR or transfected with pAdCMVmTRHR: HeLa, GHY, AtT-20, C6, CV1, COS-1 and KB cells
The class given is cell-based.

The target in assay [2] is T2, mouse TRH-R (Mus musculus, UniProt P21761).
T2 construct: expressed in transfected cells; host or cells: Infected with AdCMVmTRHR or transfected with pAdCMVmTRHR: HeLa, GHY, AtT-20, C6, CV1, COS-1 and KB cells
T2 sequence (P21761 1-393): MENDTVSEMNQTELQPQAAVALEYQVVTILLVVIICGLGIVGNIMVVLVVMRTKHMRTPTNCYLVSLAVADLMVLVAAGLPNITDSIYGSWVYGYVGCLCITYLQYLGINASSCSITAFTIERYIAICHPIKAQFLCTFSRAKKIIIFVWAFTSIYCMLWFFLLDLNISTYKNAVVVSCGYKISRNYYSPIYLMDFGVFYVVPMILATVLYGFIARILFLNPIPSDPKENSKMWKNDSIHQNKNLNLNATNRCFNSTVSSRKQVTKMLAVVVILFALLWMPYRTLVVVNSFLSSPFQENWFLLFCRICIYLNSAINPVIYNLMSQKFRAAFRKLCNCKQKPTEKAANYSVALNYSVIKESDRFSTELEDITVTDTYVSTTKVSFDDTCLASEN
Briefly: [3H]methylTRH binding to intact AdCMVmTRHR-infected cells. The note with it: TRH-Rs expressed on cells after infection with AdCMVmTRHR; data not shown; read-out: dissociation constant for methylTRH binding. As for the experimental part: (§1) Cells were seeded in wells (3.8 cm^2) pretreated with poly-L-lysine and were incubated in medium supplemented with serum in a humidified atmosphere of 5% CO2. After a minimum of 4 hours, the medium was aspirated and replaced with 0.3 ml of medium without serum, AdCMVmTRHR (300 particles/cell) was added and the cells were incubated at 37° C. After 1 hour, 0.7 to 1.0 ml medium containing serum was added and the incubation continued for 3 to 72 hours. Infection with AdCMVmTRHR was performed in an identical manner for all cell types except that the incubation mediums were different. The mediums were: Dulbecco's modified Eagle's medium supplemented with 5% Nu-Serum for human cervical cancer HeLa cells, monkey kidney Cos-1 and CV-1 cells, and rat glioma C6 cells; Ham's F-10 medium with 15% horse serum and 2.5% fetal bovine serum for rat pituitary tumor GHY cells; Delbecco's modified Eagle's medium with 10% Nu-Serum for mouse pituitary tumor AtT-20 cells; and modified Eagle's medium with 10% fetal bovine serum for human epidermoid KB cells. None of these cell lines express TRH-Rs. Cells were studied 16 to 24 hours after infection with 300 AdCMVmTRHR particles per cell which yielded maximal TRH-R expression. […]

For assay [3], the target named is T1, TRH-R. Briefly: Internalization of TRH-Rs (acid-resistant specifically bound [3H]methylTRH). The note with it: methylTRH-bound receptors. Format: cell-based. As for the experimental part:
Cells were seeded in wells (3.8 cm^2) pretreated with poly-L-lysine and were incubated in medium supplemented with serum in a humidified atmosphere of 5% CO2. After a minimum of 4 hours, the medium was aspirated and replaced with 0.3 ml of medium without serum, AdCMVmTRHR (300 particles/cell) was added and the cells were incubated at 37° C. After 1 hour, 0.7 to 1.0 ml medium containing serum was added and the incubation continued for 3 to 72 hours. Infection with AdCMVmTRHR was performed in an identical manner for all cell types except that the incubation mediums were different. The mediums were: Dulbecco's modified Eagle's medium supplemented with 5% Nu-Serum for human cervical cancer HeLa cells, monkey kidney Cos-1 and CV-1 cells, and rat glioma C6 cells; Ham's F-10 medium with 15% horse serum and 2.5% fetal bovine serum for rat pituitary tumor GHY cells; Delbecco's modified Eagle's medium with 10% Nu-Serum for mouse pituitary tumor AtT-20 cells; and modified Eagle's medium with 10% fetal bovine serum for human epidermoid KB cells. None of these cell lines express TRH-Rs. Cells were studied 16 to 24 hours after infection with 300 AdCMVmTRHR particles per cell which yielded maximal TRH-R expression.
Internalization was measured as specifically bound [^3H]methylTRH that was resistant to acid wash (Hinkle et al., 1982, J.Biol. Chem., vol. 257, pp. 5462-5470; and Nussenzveig et al., 1993, J.Biol. Chem., vol. 268, pp. 2389-2392, which disclosures are hereby incorporated by reference). Specific acid resistant binding was calculated by subtracting the nonspecifically bound from the [^3H]methylTRH remaining after acid/salt elution.

The target in assay [4] is T1, TRH-R. Briefly: methylTRH stimulation of [3H]IP formation (TRH response). The class given is cell-based. Particulars: uninfected HeLa, GHY, AtT, C6, CV1 and COS-1 cells. As for the experimental part:
as §1, with “TRH-Rs.” for “TRH-Rs. Cells were studied 16 to 24 hours after infection with 300 AdCMVmTRHR particles per cell which yielded maximal TRH-R expression.”
Infected or transfected cells were labelled for 24 hours with [^3H]myo-inositol, stimulated with TRH or methylTRH in a balanced salt solution containing 10 mM LiCl and [^3H]IPs were measured as described by Imai et al., 1987, Methods. […]

SMILES strings stand for the structures. Read-outs that look alike come from different tables or passages of the source.

For the compound `CCCCCCCCCCCCCC(=O)O[C@@H]1[C@@H](C)[C@@]2(O)[C@@H](C=C(CO)C[C@]3(O)C(=O)C(C)=C[C@@H]23)[C@@H]2C(C)(C)[C@]12OC(C)=O` [PMA], the “PMA-induced inhibition of the TRH response” value in assay [1] (AdCMVmTRHR-infected AtT-20 cells, 0.1 μM PMA 60 minutes prior to TRH) was determined as 37±4.0%; in assay [1] (AdCMVmTRHR-infected COS-1 cells, 0.1 μM PMA 60 minutes prior to TRH), 37±8.0%; in assay [1] (AdCMVmTRHR-infected GHY cells, 0.1 μM PMA added 60 minutes prior to TRH), 25±4.6%; in assay [1] (AdCMVmTRHR-infected KB cells, 0.1 μM PMA 60 minutes prior to TRH), 0±10%.

`NC(=O)[C@@H]1CCCN1C(=O)[C@H](Cc1cnc[nH]1)NC(=O)[C@@H]1CCC(=O)N1` [TRH, thyrotropin-releasing hormone]: the “TRH-induced desensitization: decrease of rate of IP formation compared to control” value in assay [1] (AdCMVmTRHR-infected AtT-20 cells, 60 minutes 1 μM TRH) was determined as 41±4.7%. The TRH-induced desensitization entry is “did not desensitize” in assay [1] (AdCMVmTRHR-infected COS-1 cells, 60 minutes 1 μM TRH) and 0±10% in assay [1] (AdCMVmTRHR-infected KB cells, 60 minutes 1 μM TRH). In assay [1] (AdCMVmTRHR-infected GHY cells, after 60 minutes of stimulation by 1 μM TRH), the “TRH-induced desensitization: decrease of the response to TRH” value amounted to 49±5.2%.

Take `Cn1cnc(C[C@H](NC(=O)[C@@H]2CCC(=O)N2)C(=O)N2CCC[C@H]2C(N)=O)c1` [methylTRH]: the Kd in assay [2] came out at 1.09 ± 0.26 nM. The “TRH-Rs internalized after 60 minutes” value in assay [3] (AdCMVmTRHR-infected COS-1 cells (printed COA-1)) came out at 62±2.1%; in assay [3] (AdCMVmTRHR-infected GHY cells) it was 64±7.0%; in assay [3] (AdCMVmTRHR-infected KB cells), 71±2.6%. The “response to methylTRH (IP formation) in uninfected cells” value in assay [4] is reported as “did not respond”.
